We go through three molecules from US6489356B2, “Method for treating pain in humans” (priority 2000, dated 2002).

The structures appear in SMILES notation. “Also recorded” adds a separate entry of the source. Like-named read-outs stand apart in the source and are kept apart here.

In data set [1] the target is T1, A1 adenosine receptor (Rattus norvegicus, UniProt P25099).
T1 construct: from tissue; host or cells: rat brain
T1 sequence (P25099 1-326): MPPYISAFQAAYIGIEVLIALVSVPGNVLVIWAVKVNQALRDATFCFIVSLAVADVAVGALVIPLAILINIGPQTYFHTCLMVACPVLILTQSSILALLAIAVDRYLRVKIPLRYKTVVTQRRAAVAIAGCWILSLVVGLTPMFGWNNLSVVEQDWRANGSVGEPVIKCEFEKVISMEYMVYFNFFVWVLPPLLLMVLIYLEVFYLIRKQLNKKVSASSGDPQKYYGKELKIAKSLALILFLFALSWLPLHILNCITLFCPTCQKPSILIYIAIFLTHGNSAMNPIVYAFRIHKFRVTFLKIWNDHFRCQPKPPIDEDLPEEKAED
The following applies: rat brain, cited from earlier work.

Data set [2] addresses T2, A1 adenosine receptor (Cavia porcellus, UniProt P47745).
T2 construct: functional studies conducted in the isolated guinea pig left atrium and isolated ileum; from tissue; host or cells: isolated guinea pig ileum
T2 sequence (P47745 1-326): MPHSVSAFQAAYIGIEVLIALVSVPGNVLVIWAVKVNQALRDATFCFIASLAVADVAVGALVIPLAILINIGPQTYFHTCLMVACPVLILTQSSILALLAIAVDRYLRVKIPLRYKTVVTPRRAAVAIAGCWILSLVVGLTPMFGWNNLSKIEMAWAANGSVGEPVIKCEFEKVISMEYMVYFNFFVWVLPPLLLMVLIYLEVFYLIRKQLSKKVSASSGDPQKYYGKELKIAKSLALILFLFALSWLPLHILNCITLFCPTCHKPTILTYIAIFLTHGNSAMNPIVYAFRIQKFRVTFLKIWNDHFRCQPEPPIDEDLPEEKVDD
Conditions: isolated guinea pig left atrium; cited from earlier work.

In data set [3] the target is T2, A1 adenosine receptor. The following applies: isolated ileum; cited from earlier work.
Data set [4] has as its system mechanical hypersensitivity after spinal nerve ligation in the rat. In words: spinal nerve ligation model of neuropathic pain, von Frey withdrawal threshold. The following applies: for dose returning sensitivity (withdrawal threshold) to normal: rat. The format is in vivo. From the text:
Following Animal Care and Use Committee approval, mechanical hypersensitivity was generated in male Sprague-Dawley rats as described in the following paper. (Kim,S. H. and Chung, J. M., An experimental model for peripheral neuropathy produced by segmental spinal nerve ligation in the rat, Pain, 50 (1992) 355-363. Briefly, under general anesthesia with inhalational halothane, the left L5 and L6 spinal nerves were identified through a small laminotomy and tightly ligated. Approximately one week later, an intrathecal catheter was placed under general anesthesia by insertion under direct vision of a polyethylene catheter through a small slit in the dura at the cisterna magnum and advanced 8.5 cm such that the catheter tip resided in the lower lumbar intrathecal space. Animals were studied approximately one week later.
Ligation of the lumbar spinal nerves results in a primarily unilateral increase in the sensitivity to light touch on the operated side. Sensitivity was assessed via application of calibrated von Frey filaments. The withdrawal threshold was determined using an up down method as described in Chaplan, S. R., Bach, F. W., Pogrel, J. W., Chung, J. M., and Yaksh, T. L., Quantitative assessment of tactile allodynia in the rat paw, J. Neurosci. Methods, 53 (1994) 55-63.
Von Frey filaments are scientific apparatus designed to apply a pre-determined pressure to a surface. These filaments are flexible bristles with a flat tip. The applied pressure is determined by the diameter of the filament.
In these studies, the animals are placed on top of a wired cage. The goal of these studies is to determine the pressure at which the animal perceives the pressure applied as painful and lifts its foot. The scientist determines the discomfort pressure threshold by pressing the tip of von Frey filaments, one filament at a time, to the bottom of the foot through the wired cage floor. When a slight pressure is applied to the underside of the foot, the animal feels the sensation but it will not lift its foot because this sensation is not painful, or uncomfortable.
In a normal animal, the threshold for discomfort is approximately 35 g pressure. In an animal whose foot is rendered more sensitive to pressure, the withdrawal threshold is less than 4 g. That is, a pressure that is not perceived as pain in the unaltered, control foot will be perceived as a painful stimulus in the surgically altered foot.
Mechanical withdrawal threshold was determined before and at intervals after intrathecal injection of Compound T62, 1-5 μg. […] In the study, the investigator was blinded to the dose administered. Compound T62 was dissolved in cyclodextrin, which had no effect on withdrawal threshold when administered alone.
Animals received 6 injections, each separated by a minimum of 4 days to prevent development of tolerance. The withdrawal threshold to mechanical stimulation with von Frey filaments was determined before and at intervals of […] following intrathecal injection, then again at 20 hours following injection. A dose response was determined using the time of peak effect (2 hr for each compound) and the ED50 determined by linear regression.
The ED50 for the mixture (total of each component combined) was determined by linear regression, an isobologram constructed, and the observed ED50 was compared to the theoretical ED50 by a t-test as previously described in Tallarida, R. J., Statistical analysis of drug combinations for synergism, Pain, 49 (1992) 93-97. In order to determine the site of action of Compound T62, two experiments were performed. […]
Compound T62 was dissolved in 45% […] (RBI, Natick, Mass. ). Drugs were administered intrathecal in a 5 μl volume followed by 10 μl of saline to flush the catheter.
Data are presented as median±25th and 75th percentile (for raw withdrawal thresholds) or by mean±SE. Linear regression was used to calculate the ED50 for each drug alone and for the fixed ratio combination. […]

For data set [5], the target named is T3, human recombinant A1 adenosine receptors (Homo sapiens, UniProt P30542).
T3 construct: expressed in transfected cells; host or cells: CHO cells (CHO: huA1)
T3 sequence (P30542 1-326): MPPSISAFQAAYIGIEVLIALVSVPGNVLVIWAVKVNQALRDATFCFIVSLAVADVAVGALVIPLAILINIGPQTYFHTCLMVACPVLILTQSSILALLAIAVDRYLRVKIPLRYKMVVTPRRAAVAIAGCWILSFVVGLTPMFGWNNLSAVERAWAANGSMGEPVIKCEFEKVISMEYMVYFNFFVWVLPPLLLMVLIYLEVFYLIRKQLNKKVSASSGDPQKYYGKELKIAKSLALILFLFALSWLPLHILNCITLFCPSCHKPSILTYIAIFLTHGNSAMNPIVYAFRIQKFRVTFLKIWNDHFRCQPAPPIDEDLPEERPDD
In words: cyclic AMP production in CHO cells expressing the A1 adenosine receptor. The format is cell-based. The procedure:
Cells were removed from liquid nitrogen storage when needed, and grown in Ham's F-12 culture medium with 10% fetal bovine serum and 0.5 mg/ml of antibiotic G-418. Aliquots of cells were placed into 12-well cultured plates with culture medium, serum, and antibiotic for 48-72 hours, by which time the cells had grown to a confluent monolayer.
To begin an experiment, growth medium was removed from the culture plates and cells were washed once with Hanks' buffered saline solution. […] After 6 min of incubation at 36° C. in the presence of drugs, the incubation solution was removed and hydrochloric (final concentration, 50 mM) was added to terminate drug action.
The content of cAMP in acidified extracts of cells was determined by radioimmunoassay as previously described (12). The compounds listed in reference 7 (U.S. Pat. No. 5,939,432) relating to allosteric enhancers, were tested using this method.
Because the magnitude of the effects of allosteric enhancers on cells changed with time and batch of cells, the actions of each test compound to enhance the effect of CPA (and thus reduce cAMP content of CHO cells) were normalized to the response of cells to 10 μM PD 81,723. […] Enhancement by Compound T62 began at 10 nM. There was no antagonism of this effect even at 10 μM of Compound T62.

In another data set the test system is mouse. The format is in vivo. The following applies: 1024 mg/kg i.p., listed as Compound T-62. The procedure:
As indicated above, Compound T62 is an effective treatment for neuropathic pain at a dose of 15 mg/kg by intraperitoneal (i.p.) injection. In addition, the safety of T62 was evaluated at 64, 128, 256, 512 and 1024 mg/kg (Table 1).

Data set [6] relates to carrageenan-induced hyperalgesia in rats. The data set can be described thus: carrageenan paw model of inflammatory pain, Hargreaves thermal withdrawal. In kind it is in vivo, rat. As to the method:
Compound T62 was tested for its efficacy in treating inflammatory pain by use of the carrageenan paw model. Carrageenan is a water-extractable polysaccharide obtained from seaweeds. […] Carrageenan-induced hyperalgesia is believed to occur as a consequence of sensitization of primary afferent nociceptors and neuron plasticity intrinsic to the spinal cord.
Animals were prepared with chronic lumbar intrathecal catheters. Baseline measurement of hindpaw withdrawal latency to thermal stimulation were obtained on a Hargreaves device. Animals received a single intrathecal (IT) injection of Compound T-62 ranging from 0.5 to 40 μg. Withdrawal thresholds were measured on a Hargreaves device every 30 minutes for three hours.
(In general: The carrageenan paw model is a standard test of acute inflammation.)

Data set [7] has as its target T4, A1 receptor in rat forebrain membranes (Rattus norvegicus, UniProt P25099).
T4 construct: from tissue; host or cells: rat forebrain membranes
T4 sequence (P25099 1-326): T1 sequence (P25099 1-326)
Conditions: compound 30 in reference (5), Bruns et al.; read-out: ED50 as an enhancer; cited from earlier work.

Data set [8] deals with phenylbenzoquinone-induced writhing in mice. The data set can be described thus: phenylbenzoquinone (PBQ) writhing test. In kind it is in vivo, mouse. As to the method: Testing for use of Compound T62 in treatment of persistent chemical pain was performed following the phenylbenzoquinone (PBQ) writhing tests. This method detects general analgesic activity. Mice were injected with phenylbenzoquinone (PBQ) (1.25 mg/kg i.p.). […] The number of writhes was counted for 10 minutes beginning 5 minutes after injection of PBQ. 8 mice were studied for each treatment group and the test was performed blind.
For orientation: An intraperitoneal irritant provokes the stretching counted in writhing tests.

On to `CCOC(=O)N1CCc2c(sc(N)c2C(=O)c2ccccc2)C1` [PD 78,416], for which the “enhancement of [3H]CHA binding” value on A1 adenosine receptor [1] (competition studies) is “not observed”. Also, the “effect on dissociation of [3H]CHA binding” value on A1 adenosine receptor [1] is listed as “retards the dissociation”. The entries for the “enhancement of the effect of the agonist CPA” value at A1 adenosine receptor [2] and at A1 adenosine receptor [3] were “enhanced the effect” and “failed to enhance”, respectively.
For the molecule `Nc1ncnc2c1ncn2[C@@H]1O[C@H](CO)[C@@H](O)[C@H]1O` [adenosine, reference compound], in data set [4] (intrathecal injection), the “time of peak effect” value came out at 2 h and the “dose returning sensitivity (withdrawal threshold) to normal” value was 30 µg.
For `Nc1sc2c(c1C(=O)c1ccc(Cl)cc1)CCCC2` [Compound T62, (2-Amino-4,5,6,7-tetrahydrobenzo[b]thiophen-3-yl)(4-chlorophenyl)methanone], the “enhancer potency compared to PD 81,723” value in [5] (CHO:huA1 cells cAMP) is reported as “more potent enhancer than PD 81,723”. The “concentration at which enhancement of the CPA induced inhibition of cyclic AMP production began” value in data set [5] (CHO:huA1 cells, forskolin 1 μM, CPA, normalized to 10 μM PD 81,723) amounted to 10 nM. Further, the “antagonism of the A1 receptor” value in [5] (at 10 μM Compound T62) was “does not antagonize; also recorded: no antagonism”. The “duration of effect on withdrawal threshold” value is reported as “at least 4 hours” in data set [4] (IP injection, 15 mg/kg) and “over 4 hours” in [4] (intrathecal injection). Also, the effect on hypersensitivity result in [4] (intraperitoneal injection, 15 mg/kg) is reported as “effective to reduce hypersensitivity”. The “dose required for efficacy” value is 15 mg/kg in data set [4] (intraperitoneal, rats, neuropathic pain) and 128 mg/kg in data set [8] (intraperitoneal, mice, chemically induced pain). Moreover, the “effect of intraperitoneal Compound T62 after A1 antagonist” value in data set [4] (intrathecal DPCPX (5 μg)) is on record as “blocked”. Further, the motor effect entry in data set [4] (intrathecal doses larger than 1-5 μg) is given as “obvious motor blockade”. For the same molecule, in [4] (intrathecal injection), the “time of peak effect” value amounted to 2 h. In addition, in data set [4] (intrathecal injection), the “dose returning sensitivity (withdrawal threshold) to normal” value turned out to be 5 µg. The Irwin test observations result in the data set with mouse was “tremor and tip-toe gait”. In data set [6] (intrathecal, rats with 2 mg intraplantar carrageenan, n=4), the “dose sufficient to completely reverse hypersensitivity of the inflamed foot to pre-carrageenan levels” value amounted to 1 µg. Also, in data set [6] (normal rats, intrathecal 0.5 to 40 μg), the “effect on withdrawal thresholds” value is reported as “no significant effect”. For the same molecule, in data set [7], the EC50 is 15.3 µM. The “NUMBER OF WRITHES (5 to 1 5 min after phenylbenzoquinone) mean ± s.e.m.” value was determined as 13.9 ± 3.4 in data set [8] (128 mg/kg i.p. −30 minutes); 10.9 ± 2.6 in [8] (128 mg/kg i.p. −1 hour); 17.3 ± 2.0 in data set [8] (128 mg/kg i.p. −2 hours); 13.1 ± 3.5 in [8] (128 mg/kg i.p. −4 hours); 15.3 ± 4.1 in data set [8] (128 mg/kg i.p. −8 hours); 5.9 ± 2.2 in data set [8] (512 mg/kg i.p. −30 minutes). Besides, the “NUMBER OF WRITHES (5 to 1 5 min after phenylbenzoquinone) mean ± s.e.m.” value was determined as 6.4 ± 1.0 in data set [8] (512 mg/kg i.p. −1 hour), 3.5 ± 1.8 in data set [8] (512 mg/kg i.p. −2 hours), 4.8 ± 1.5 in data set [8] (512 mg/kg i.p. −4 hours) and 6.0 ± 1.9 in [8] (512 mg/kg i.p. −8 hours). For the same molecule, the “percent change from control” value was −18% in [8] (128 mg/kg i.p. −30 minutes); −58% in [8] (128 mg/kg i.p. −1 hour); −38% in [8] (128 mg/kg i.p. −2 hours); −36% in data set [8] (128 mg/kg i.p. −4 hours); “+11%” in data set [8] (128 mg/kg i.p. −8 hours); −65% in data set [8] (512 mg/kg i.p. −30 minutes). Besides, the “percent change from control” value in data set [8] (512 mg/kg i.p. −1 hour) is −75%; in [8] (512 mg/kg i.p. −2 hours), −87%; in [8] (512 mg/kg i.p. −4 hours), −77%; in data set [8] (512 mg/kg i.p. −8 hours) it was −56%.
